Assay results: patent publication US5602156A, “Method for inhibiting metalloproteinase expression” (The United States of America as represented by the …, priority 1994, dated 1997)
“Also recorded” adds a separate entry of the source.

Tests used:
MMP-2 [1] = test: Gelatin zymography of A2058 cells, compound 1 with or without TGF-β1 (densitometry); type: cell-based, human; conditions: control band = 100%
Description: (§1) Conditioned media for zymogram and Western blot analysis were produced under serum-free conditions. Cells (2 million) were plated in 25 cm^2 flasks in serum-containing medium and cultured overnight. Serum-containingmedium was removed and the cell monolayers were washed twice with DMEM/ITS (DMEM containing insulin (5 μg/mL), transferrin (5 μg/mL), and selenium (5 ng/mL)). The resultant cells were fed with 3 mL of DMEM/ITS and additives as described in the Examples for two 24 hour periods. Conditioned media samples were collected at 24 hours and cells were refed with fresh DMEM/ITS containing the described additives for an additional 24 hours. Conditioned media samples were centrifuged to remove cells and debris then frozen at -20° C. until use. Freeze and thaw cycles of the conditioned media were limited to no more than two.
(§2) A2058 human melanoma cells, human HT1080 fibrosarcoma cells, and OVCAR3 human ovarian cancer cells were incubated with increasing concentrations of compound 1 (0.2-20 μM) or DMSO control (0.05%) and subjected to gelatin zymography. Aliquots of conditioned medium (15 μL) were electrophoresed on gelatin-containing 10% PAGE gels under nonreducing but denaturing conditions. These conditions allow the different gelatin-degrading species (MMPs) to separate by size. The enzymes renature after removal of the SDS by incubation of the gel with 2.5 % Triton X-100, and degrade the gelatin substrate present in the polyacrylamide gel upon overnight incubation in low salt collagenase buffer. Bands of clearing, seen after Coomassie blue staining correspond to areas of gelatinase activity.
(§3) A2058 and HT1080 cells were incubated with compound 1 (2 μM), with or without TGF-β1 (5 ng/mL) for 24 and 48 hours prior to harvest of conditioned media. Aliquots were subjected to gelatin zymography as described in Example 1. Known concentrated conditioned medium from HT1080 cells was used for identification of the gelatinase species (92 kDa, gelatinase B/MMP-9; 72 kDa, gelatinase A/MMP-2 latent form; 65 kDa intermediate and 62 kDa activated forms of MMP-2).
(§4) Lane 1 is the control resulting from treatment of the cells with 0.1% DMSO. Lanes 2 and 3 correspond to those cells which are treated with 2 μM compound 1 in the absence of TGF-β1 for 24 and 48 hours, respectively. Lane 4 corresponds to cells which have been treated with TGF-β1 in the absence of compound 1. Lane 5 corresponds to cells which have been treated with TGF-β1 for 48 hours with compound 1 being added to the incubation mixture for the final 24 hours. Lane 6 corresponds to cells which have been treated for 48 hours with both TGF-β1 and compound 1.
(§5) *The control band was defined as 100% gelatinase activity and the other
(§6) bands were normalized to it. Numbers reflect triplicate measurements from
(§7) each zymogram band of representative zymograms. Standard deviations, not

MMP-2 [2] = test: Gelatin zymography of HT1080 cells, compound 1 with or without TGF-β1 (densitometry); type: cell-based, human; conditions: control band = 100%
Description: as §1, §2, §3, §4, §5, §6, §7

MMP-9 = test: Gelatin zymography of HT1080 cells, compound 1 with or without TGF-β1 (densitometry), 92 kDa; type: cell-based, human; conditions: control band = 100%
Description: as §1, §2, §3, §4, §5, §6, §7

[3] = system: gelatinase activity of the metalloproteinases; test: Zymogram slices incubated with compound 1 or calcium chelators in the activating buffer (direct inhibition of enzyme); type: biochemical, human
Description: See, Felder, et al., J. Pharm. Exp. Therapeut. 257:967-971 (1991) and unpublished observations by the inventors.
Gelatin zymography was carded out using control conditioned media from A2058 cells and HT1080 cells in the absence of compound 1. Zymogram slices were incubated in low salt collagenase buffer with control (DMSO 0.1%), an inhibitory dose of compound 1 (20 μM), or the calcium chelators EGTA (10 mM) and EDTA (10 mM). […] See, Brown, et al., Cancer Res. 50:6184-6191 (1990). […] Lane 1 for each of the zymograms corresponds to A2058 while lane 2 corresponds to HT1080.

MMP-2 [4] = test: Western immunoblot of conditioned media from compound 1 and TGF-β1 treated cells; type: cell-based, human; conditions: HT1080 and A2058; 2 μM, 24 and 48 hr
Description: A2058 and HT1080 conditioned media samples were concentrated 10-fold using ultrafiltration units excluding material of less than 10 or 30 kDa in molecular weight. Aliquots of 15 μL were electrophoresed on 4-20% gradient PAGE gels, electrically transferred to membranes and immunoblotted with specific polyclonal antibody to proMMP-2. This antibody, made to the MMP-2/TIMP-2 complex recognizes the latent and activated MMP-2 species and crossreacts with TIMP-2 (21 kDa).
as §3
as §4, with “Lane 6 corresponds to cells which have been treated for 48 hours with both TGF-β1 and compound 1.” left out

arachidonic acid release = conditions: cited from earlier work
phospholipase C-γ = conditions: cited from earlier work
[5] = system: proliferation and metastasis; conditions: cited from earlier work
[6] = with TGF-β1, 2 μM compound 1, 24 hr
[7] = with TGF-β1, 2 μM compound 1, 48 hr
[8] = without TGF-β1, 2 μM compound 1, 24 hr
[9] = without TGF-β1, 2 μM compound 1, 48 hr
[10] = with TGF-β, 2 μM compound 1, 24 hr
[11] = with TGF-β, 2 μM compound 1, 48 hr
[12] = without TGF-β, 2 μM compound 1, 24 hr
[13] = without TGF-β, 2 μM compound 1, 48 hr

NC(=O)c1nnn(Cc2cc(Cl)c(C(=O)c3ccc(Cl)cc3)c(Cl)c2)c1N [Compound 1, 5-amino-l-(4-(4-chlorobenzoyl)-3,5-dichlorobenzyl)-1,2,3-triazole-4-carboxamide]
gelatinase activity, 65 + 62 kDa (MMP-2 [1]; [6]): 0% | gelatinase activity, 72 kDa (MMP-2 [1]; [6]): 44% | gelatinase activity, 65 + 62 kDa (MMP-2 [1]; [7]): 0% | gelatinase activity, 72 kDa (MMP-2 [1]; [7]): 36% | gelatinase activity, 65 + 62 kDa (MMP-2 [1]; [8]): 14% | gelatinase activity, 72 kDa (MMP-2 [1]; [8]): 84% | gelatinase activity, 65 + 62 kDa (MMP-2 [1]; [9]): 0% | gelatinase activity, 72 kDa (MMP-2 [1]; [9]): 45% | gelatinase activity, 65 + 62 kDa (MMP-2 [2]; [10]): 194% | gelatinase activity, 72 kDa (MMP-2 [2]; [10]): 52% | gelatinase activity, 65 + 62 kDa (MMP-2 [2]; [11]): 116% | gelatinase activity, 72 kDa (MMP-2 [2]; [11]): 10% | gelatinase activity, 65 + 62 kDa (MMP-2 [2]; [12]): 125% | gelatinase activity, 72 kDa (MMP-2 [2]; [12]): 10% | gelatinase activity, 65 + 62 kDa (MMP-2 [2]; [13]): 24% | gelatinase activity, 72 kDa (MMP-2 [2]; [13]): 0.6% | gelatinase activity, 92 kDa (MMP-9; [10]): 78% | gelatinase activity, 92 kDa (MMP-9; [11]): 14% | gelatinase activity, 92 kDa (MMP-9; [12]): 73% | gelatinase activity, 92 kDa (MMP-9; [13]): 12% | mechanism not due to calcium chelation [3]: not due to calcium chelation | gelatinase activity of enzymes in isolation ([3]; compound 1 in zymogram incubation buffer, 20 μM, A2058 and HT1080 media): lack of reduction of gelatinolytic activity in conditioned medium; also recorded: does not inhibit gelatinase activity of the metalloproteinases; also recorded: did not effect its activity in isolation | inhibition of MMP-2 (immunoblot) (MMP-2 [4]): inhibits MMP-2 in a time-dependent manner | arachidonic acid release (arachidonic acid release): inhibits | tyrosine phosphorylation with activation of phospholipase C-γ (phospholipase C-γ): inhibits | antiproliferative and antimetastatic activities [5]: antiproliferative and antimetastatic activities
